Measured values: ChEMBL document CHEMBL4354881, “Optimization of Potent ATAD2 and CECR2 Bromodomain Inhibitors with an Atypical Binding Mode” (J Med Chem, 2020)
In brackets after ≈: the same amount, converted by molar mass.

Tests used:
[1] = biological target: T1, ATPase family AAA domain-containing protein 2 (Homo sapiens, UniProt Q6PL18); assay: Displacement of Alexa Fluor 488-labeled ligand from FLAG-6His-Tev-fused ATAD2 (981 to 1121 residue) (unknown origin) measured after 30 mins by TR-FRET assay
T1 sequence (Q6PL18 whole entry): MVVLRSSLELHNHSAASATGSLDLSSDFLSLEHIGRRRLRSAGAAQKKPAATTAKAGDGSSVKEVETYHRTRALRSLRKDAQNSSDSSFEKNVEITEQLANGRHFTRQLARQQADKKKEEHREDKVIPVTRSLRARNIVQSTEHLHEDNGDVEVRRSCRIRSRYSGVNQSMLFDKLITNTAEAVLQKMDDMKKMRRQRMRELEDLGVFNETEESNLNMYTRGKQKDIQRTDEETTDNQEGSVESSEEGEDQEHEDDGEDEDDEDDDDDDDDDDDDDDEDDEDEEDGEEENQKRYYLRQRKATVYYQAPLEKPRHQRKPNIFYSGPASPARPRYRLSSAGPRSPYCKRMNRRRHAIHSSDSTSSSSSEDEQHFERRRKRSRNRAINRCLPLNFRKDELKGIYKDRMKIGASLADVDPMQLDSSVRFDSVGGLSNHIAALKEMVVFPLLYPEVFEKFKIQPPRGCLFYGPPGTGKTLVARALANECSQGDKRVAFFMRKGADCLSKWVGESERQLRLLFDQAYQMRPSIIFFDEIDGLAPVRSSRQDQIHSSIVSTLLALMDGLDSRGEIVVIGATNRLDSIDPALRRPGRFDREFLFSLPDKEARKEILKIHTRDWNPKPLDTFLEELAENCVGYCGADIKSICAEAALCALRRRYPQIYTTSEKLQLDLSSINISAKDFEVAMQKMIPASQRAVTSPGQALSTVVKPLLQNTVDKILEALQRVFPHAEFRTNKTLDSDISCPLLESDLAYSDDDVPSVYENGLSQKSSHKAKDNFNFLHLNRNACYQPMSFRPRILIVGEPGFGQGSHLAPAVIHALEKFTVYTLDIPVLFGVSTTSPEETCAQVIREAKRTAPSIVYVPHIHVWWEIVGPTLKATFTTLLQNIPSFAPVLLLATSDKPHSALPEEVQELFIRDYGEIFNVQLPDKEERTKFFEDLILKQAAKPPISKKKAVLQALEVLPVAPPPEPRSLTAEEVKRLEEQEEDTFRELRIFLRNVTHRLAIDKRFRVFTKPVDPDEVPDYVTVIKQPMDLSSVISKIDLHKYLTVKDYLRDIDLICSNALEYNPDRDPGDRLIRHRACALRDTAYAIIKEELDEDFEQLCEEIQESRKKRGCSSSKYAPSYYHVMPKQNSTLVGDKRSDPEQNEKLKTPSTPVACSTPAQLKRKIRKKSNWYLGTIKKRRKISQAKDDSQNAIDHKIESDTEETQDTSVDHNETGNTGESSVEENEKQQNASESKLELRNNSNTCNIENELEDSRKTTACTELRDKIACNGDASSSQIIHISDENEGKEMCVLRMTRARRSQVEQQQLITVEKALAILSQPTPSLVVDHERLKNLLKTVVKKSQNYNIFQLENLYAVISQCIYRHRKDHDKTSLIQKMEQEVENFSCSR

[2] = biological target: Bromodomain-containing protein 4 (Homo sapiens, UniProt O60885); assay: Displacement of Alexa Fluor 647-labeled ligand from BRD4 BD2 (unknown origin) measured after 30 mins by TR-FRET assay
[3] = biological target: Bromodomain-containing protein 4 (Homo sapiens, UniProt O60885, Y390A); assay: Displacement of Alexa Fluor 647-labeled ligand from BRD4 BD1 Y390A mutant (1 to 477 residue) (unknown origin) measured after 30 mins by TR-FRET assay
[4] = biological target: T2, Chromatin remodeling regulator CECR2 (Homo sapiens, UniProt Q9BXF3); assay: Binding affinity to human partial length CECR2 (P423 to D543 residues) expressed in bacterial expression system by BROMOscan assay
[5] = biological target: T2, Chromatin remodeling regulator CECR2; assay: Inhibition of BSP-BODIPY binding to Nanoluc-tagged CECR2 (unknown origin) expressed in HEK293 cells measured after 4 to 6 hrs by NanoBRET assay; assay type: cell-based
[6] = Permeability of the compound by artificial lipid membrane-based method; assay type: ADME; conditions: not told; read-out: permeability
[7] = biological target: Histone acetyltransferase KAT2A (Homo sapiens, UniProt Q92830); assay: Binding affinity to human partial length GCN5L2 (E726 to K837 residues) expressed in bacterial expression system by BROMOscan assay
[8] = species on record: Homo sapiens; assay: Selectivity ratio of IC50 for displacement of Alexa Fluor 488-labeled ligand from FLAG-6His-Tev-fused ATAD2 (981 to 1121 residue) (unknown origin) to IC50 for displacement of Alexa Fluor 647-labeled GSK tracer from FLAG-6His-Tev-fused CECR2 (424 to 543 residue) (unknown origin)
[9] = Solubility of the compound by CAD method; assay type: physicochemical
[10] = Lipophilicity, log D of the compound at pH 7.4 by chromatographic method; assay type: physicochemical; conditions: buffer
[11] = biological target: T2, Chromatin remodeling regulator CECR2; assay: Displacement of Alexa Fluor 647-labeled GSK tracer from FLAG-6His-Tev-fused CECR2 (424 to 543 residue) (unknown origin) measured after 15 mins by TR-FRET assay
[12] = biological target: T2, Chromatin remodeling regulator CECR2; assay: Binding affinity to CECR2 (unknown origin) by ITC analysis

T2 sequence (Q9BXF3 whole entry, the tested form may be a part): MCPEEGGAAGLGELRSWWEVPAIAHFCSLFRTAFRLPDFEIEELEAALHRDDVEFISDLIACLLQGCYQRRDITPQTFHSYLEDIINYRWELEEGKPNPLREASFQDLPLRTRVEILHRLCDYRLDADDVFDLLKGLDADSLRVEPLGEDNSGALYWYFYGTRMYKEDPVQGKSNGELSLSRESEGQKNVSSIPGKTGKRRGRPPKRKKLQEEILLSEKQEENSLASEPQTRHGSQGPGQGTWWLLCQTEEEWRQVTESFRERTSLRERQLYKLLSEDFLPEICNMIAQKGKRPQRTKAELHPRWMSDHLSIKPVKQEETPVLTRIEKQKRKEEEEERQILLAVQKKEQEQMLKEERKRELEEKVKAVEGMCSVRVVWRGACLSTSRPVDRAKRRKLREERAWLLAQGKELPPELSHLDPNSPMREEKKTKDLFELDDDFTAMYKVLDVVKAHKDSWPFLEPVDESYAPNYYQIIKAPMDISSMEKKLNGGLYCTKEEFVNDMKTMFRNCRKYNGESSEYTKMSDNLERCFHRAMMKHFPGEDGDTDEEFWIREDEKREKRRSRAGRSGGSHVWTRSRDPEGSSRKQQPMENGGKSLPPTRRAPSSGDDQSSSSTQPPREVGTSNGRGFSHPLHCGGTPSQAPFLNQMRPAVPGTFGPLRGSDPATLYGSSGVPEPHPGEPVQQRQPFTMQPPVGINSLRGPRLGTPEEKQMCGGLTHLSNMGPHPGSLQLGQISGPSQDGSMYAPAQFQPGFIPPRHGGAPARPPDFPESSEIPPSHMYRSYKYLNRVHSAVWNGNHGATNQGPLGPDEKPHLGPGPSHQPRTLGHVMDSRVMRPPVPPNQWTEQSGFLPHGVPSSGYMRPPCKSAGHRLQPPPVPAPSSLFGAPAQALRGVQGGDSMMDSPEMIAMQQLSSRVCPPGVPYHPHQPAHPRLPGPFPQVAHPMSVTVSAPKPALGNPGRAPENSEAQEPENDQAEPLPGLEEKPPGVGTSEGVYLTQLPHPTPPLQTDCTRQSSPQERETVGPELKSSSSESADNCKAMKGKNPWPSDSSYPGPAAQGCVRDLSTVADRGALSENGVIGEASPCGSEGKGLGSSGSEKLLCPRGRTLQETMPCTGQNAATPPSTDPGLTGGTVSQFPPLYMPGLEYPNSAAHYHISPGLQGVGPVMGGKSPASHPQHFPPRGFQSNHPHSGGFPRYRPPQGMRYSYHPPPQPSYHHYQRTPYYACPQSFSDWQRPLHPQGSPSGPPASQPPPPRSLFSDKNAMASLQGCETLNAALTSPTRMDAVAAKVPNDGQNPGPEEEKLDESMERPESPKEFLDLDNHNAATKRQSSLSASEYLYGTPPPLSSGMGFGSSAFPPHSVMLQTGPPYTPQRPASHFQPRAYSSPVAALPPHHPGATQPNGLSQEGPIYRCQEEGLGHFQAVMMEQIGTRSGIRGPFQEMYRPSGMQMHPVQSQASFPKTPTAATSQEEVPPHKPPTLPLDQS
Chain of Histone acetyltransferase KAT2A (Q92830 whole entry, the tested form may be a part): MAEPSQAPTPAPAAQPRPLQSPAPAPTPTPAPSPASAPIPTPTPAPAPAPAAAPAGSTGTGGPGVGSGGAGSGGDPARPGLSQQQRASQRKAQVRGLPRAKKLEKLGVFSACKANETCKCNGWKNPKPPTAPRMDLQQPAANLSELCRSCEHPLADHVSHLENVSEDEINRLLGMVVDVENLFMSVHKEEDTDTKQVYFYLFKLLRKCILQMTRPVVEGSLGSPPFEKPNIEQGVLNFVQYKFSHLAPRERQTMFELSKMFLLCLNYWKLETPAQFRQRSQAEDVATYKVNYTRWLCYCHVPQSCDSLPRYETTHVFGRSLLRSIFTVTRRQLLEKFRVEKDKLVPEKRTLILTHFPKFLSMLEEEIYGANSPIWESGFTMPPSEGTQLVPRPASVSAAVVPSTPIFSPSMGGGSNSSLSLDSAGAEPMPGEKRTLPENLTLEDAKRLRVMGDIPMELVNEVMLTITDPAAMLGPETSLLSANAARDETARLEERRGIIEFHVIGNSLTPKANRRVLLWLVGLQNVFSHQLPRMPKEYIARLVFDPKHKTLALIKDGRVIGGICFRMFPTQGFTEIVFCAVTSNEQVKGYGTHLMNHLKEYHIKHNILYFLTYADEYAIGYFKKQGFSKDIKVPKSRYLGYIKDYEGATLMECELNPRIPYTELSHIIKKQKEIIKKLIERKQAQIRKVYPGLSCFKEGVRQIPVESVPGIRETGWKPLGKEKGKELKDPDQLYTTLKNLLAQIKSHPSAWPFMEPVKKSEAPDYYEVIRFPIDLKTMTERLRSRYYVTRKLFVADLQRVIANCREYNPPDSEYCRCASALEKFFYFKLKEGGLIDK

IC50 [1] [µM] | IC50 [2] [µM] | IC50 [3] [µM] | Kd [4] [µM] | IC50 [5] [µM] | Papp [6] [×10⁻⁶ cm/s] | Kd [7] [µM] | Ratio IC50 [8] | solubility [9] [µg/mL] | chromatographic logD [10] | IC50 [11] [µM] | Kd [12] [µM] | SMILES
2 | 5.01 | 12.6 | 0.01 | 0.0398 | 14 | 0.158 |  |  |  |  |  | CN1CCc2c(nnn2CC(=O)Nc2ccc(Br)c(S(=O)(=O)N3CC[C@H](C4CC4)C3)c2)C1
3.16 | 10 | 25.1 | 0.00794 | 0.0501 | 11.1 | 0.501 |  |  |  | 0.02 |  | CN1CCc2c(nnn2CC(=O)Nc2ccc(Cl)c(S(=O)(=O)N3CC[C@H](C4CC4)C3)c2)C1

The next lines start with the molecule.

SMILES | IC50 [1] [µM] | IC50 [2] [µM] | IC50 [3] [µM] | Kd [4] [µM] | IC50 [5] [µM] | Papp [6] [×10⁻⁶ cm/s] | Kd [7] [µM] | Ratio IC50 [8] | solubility [9] [µg/mL] | chromatographic logD [10] | IC50 [11] [µM] | Kd [12] [µM]
C[C@H]1CCN(S(=O)(=O)c2cc(NC(=O)Cn3nnc4c3CCN(CC(F)(F)F)C4)ccc2Br)C1 | 2.51 |  | 31.6 |  |  |  |  | 16 | 49 (≈ 86.7 µM) | 5.3 | 0.158 | 
O=C(CN1C(=O)COC1=O)Nc1ccc(Cl)c(S(=O)(=O)N2CCCC2)c1 | 1.26 |  | > 50.1 |  |  | 5.4 |  |  |  |  | 1.58 | 
CN(C)CCCOc1ccc(-c2cc(NCCCn3cccn3)nc(S(C)(=O)=O)n2)cc1 |  |  |  |  |  |  |  |  |  |  |  | 0.01
